According to article PMC4139342, “Pharmacokinetics-Pharmacodynamics Analysis of Bicyclic 4-Nitroimidazole Analogs in a Murine Model of Tuberculosis” (PLoS ONE, 2014):
Values after ≈ are worked out from the molar mass of the structure shown.

Tests used:
[1] = system: M. tuberculosis (Mtb) (H37Rv, ATCC 27294); test: microbe, parasite or virus in culture; type: cell-based; conditions: Mycobacterium tuberculosis
[2] = Cytotoxicity against THP1 macrophage cell lines; type: cell-based; conditions: human
Mtb H37Rv = test: In vivo mouse efficacy, established murine TB model; parameters: species or system Balb/c mice; conditions: 100 mg/kg oral daily for 4 weeks
Description: In vivo mouse efficacy studies were determined after intranasal infection of Balb/c mice with 10^3 cfu Mtb H37Rv. Treatment was initiated 4 weeks after infection. Compounds were orally administered in CM-2 formulation for 4 weeks daily. Bacterial loads were determined at 2 and 4 weeks post treatment. Statistical analysis was done by a one-way analysis of variance, followed by a multiple comparison analysis of variance by a one-way Tukey test (GraphPad Prism, version 5.02, San Diago, California USA, www.graphpad.com). Differences were considered statistically significant at the 95% level of confidence.

[3] = female, CD-1, mouse, in vivo, iv, 5 mg/kg
[4] = female, CD-1, mouse, in vivo, po, 25 mg/kg
in vivo [5] = conditions: female, CD-1, mouse, po, 25 mg/kg
in vivo [6] = conditions: female, CD-1, mouse, iv, 5 mg/kg
in vivo [7] = conditions: female, CD-1, mouse, po, 25 mg/kg; remark: listed apart in the source
physchem [8] = conditions: pH 6.8, aqueous buffer, thermodynamic from solid
physchem [9] = test: physchem
in vitro [10] = conditions: human, Caco-2
in vitro [11] = conditions: mouse, plasma
[12] = In vivo lung PK after oral dosing; conditions: female, CD-1, mouse, 25 mg/kg
[13] = In vivo plasma PK after intravenous dosing; conditions: female, CD-1, mouse, plasma, iv, 5 mg/kg, T1/2 (i.v), mice, i.v. dosing at 5 mg/kg
[14] = In vivo plasma PK after oral dosing in CM-2 formulation; conditions: female, CD-1, mouse, plasma, po, 25 mg/kg

What does the source list for `O=[N+]([O-])c1cn2c(n1)OC1(CC1)C(OCc1ccc(OC(F)(F)F)cc1)C2` (centres unmarked) [NI-302]?
MIC99 [1]: 0.03 µg/mL (≈ 0.0779 µM); CC50 [2]: > 10 µg/mL; Mean log lung CFU ± SEM (Mtb H37Rv; 5 animals): 4.45±0.22 log CFU; Efficacy compared with PA-824, in words (Mtb H37Rv; significance at P<0.05): comparable efficacy to PA-824; log reduction at 100 mg/kg (Mtb H37Rv; Mycobacterium tuberculosis, H37RV, po, 672 h, 5 animals, read-out: Mean log lung CFU reduction ± SEM compared to untreated controls): 2.17 ± 0.22; PAMPA %FA: 99%; PAMPA Log Pe: –3.6 cm/sec; i.v. CL [3]: 4.3 mL/min/kg; Lung AUC24 [4]: 100.3 µg·h/g; Lung Cmax [4]: 9.7 µg/g; AUC (in vivo [5]): 144 µg·h/mL; Cmax (in vivo [5]): 12900 ng/mL; bioavailability (in vivo [5]): 100%; Vd (in vivo [6]): 1.2 L/kg; clearance (in vivo [6]; i.v. CL): 5 mL/min/kg; Kp (in vivo [7]; Lung to Plasma ratio AUC24): 0.7; Kp (in vivo [7]; Lung to Plasma ratio Cmax): 0.8; solubility (physchem [8]): 26 µg/mL (≈ 67.5 µM); logP (physchem [9]): 3.2; Papp A→B (in vitro [10]): 45.1 ×10⁻⁶ cm/s; Papp B→A (in vitro [10]): 18.7 ×10⁻⁶ cm/s; efflux ratio (in vitro [10]): 0.4; fraction unbound (in vitro [11]): 0.043; half-life [12]: 4.1 h; half-life [13]: 3.7 h; half-life [14]: 4.1 h
